Consider eight compounds from patent US20250179022A1, “COMPOUND USED AS TYK2 INHIBITOR, PREPARATION METHOD THEREFOR, AND PHARMACEUTICAL USE THEREOF” (SHANGHAI ZHIGEN PHARMACEUTICAL & TECHNOLOGY CO. LTD., priority 2022, published 2025).

In brackets after ≈: the same amount, converted by molar mass. Where two headings read alike, the source gives them in different places.

The nature of data set [1]: In vivo pharmacokinetic experiment in rats (oral). Also noted: species or system SD rats. To be noted: 5 mg/kg. As for the experimental part: Experimental method: Healthy male SD rats were randomly grouped into 3 rats in each group and given the test compound orally. The rats were fasted for 12 h before the gavage experiment, and drank water freely, and were fed uniformly for 4 h after the administration of the compounds. Before (0 h) and 0.25, 0.5, 1.0, 2.0, 4.0, 6.0, 8.0 and 24 h after the administration of the test compounds, 0.2 mL of blood was collected from the jugular vein at the above set time points and placed in EDTA-K2 tubes, and the whole blood was collected and stored temporarily in an ice-water bath, and then centrifuged at 11,000 rpm for 5 min within 30 min, the plasma was separated, and frozen at −70° C. in a refrigerator for testing.

Data set [2] in a line: Solubility in water (at pH=7). The class given is physicochemical. The text has this:
Test Example 6: Solubility of the Compounds of the Invention in Water (at pH=7)

Data set [3] has as its system IFN-α-induced STAT phosphorylation. As to the kind of experiment: IFN-α-induced STAT phosphorylation in human whole blood. The class given is cell-based. To be noted: human whole blood, 20 ng/ml IFN-α, pSTAT5 in CD3-positive cells; read-out: IC50, IFN-α inflammatory pathway (IFN-α-induced STAT phosphorylation). The text has this: The cytokine receptor attached to TYK2 mediates the signaling of type 1 interferon (IFN-α), which has been identified as the most important inflammatory factor of the autoimmune system. Human whole blood is induced with IFN-α, and TYK2 from lymphocytes in whole blood triggered STAT phosphorylation, which mediated subsequent inflammatory signaling. Therefore, TYK2 inhibitors have an inhibitory effect on IFN-α signaling, and the stronger the TYK2 inhibitory activity, the lower the level of STAT phosphorylation, and the stronger the corresponding anti-inflammatory effect.
In this experiment, the ability of the compounds to inhibit IFN-α-induced STAT phosphorylation in human whole blood were tested, and the IC50 values were calculated. The anti-inflammatory activity of the compounds was evaluated at the tissue level and evaluation of the inhibitory activity of compounds on the IFN-α inflammatory pathway based on the IC50 value.
The tested compound, powder and stored at room temperature, prepared into 10 mM stock solution with DMSO and stored at −80° C. in the refrigerator.
1× Fix/Lysis solution preparation: 5× Fix/Lysis and ddH2O were diluted according to 1:4 and preheated in 37° C. incubator, waiting for use.
Flow cytometric staining buffer preparation: 1 g of bovine serum albumin (BSA) and 1 mL of EDTA (0.5 M) solution were added to 500 mL of phosphate buffer solution (PBS) and stored at 4° C. in the refrigerator.
Compound dilution solution: 0.5 g of bovine serum albumin (BSA) was added to 500 mL of phosphate buffer solution (PBS), and stored at 4° C. in the refrigerator.
50 μg/mL IFN-alpha was diluted to 400 ng/mL with Compound Diluent and set aside.
67.5 μL of human whole blood was added to a 96-well plate using a 300 μL electric volley gun. 3.5 μL of prepared test compound was added, mixed well and placed in the cell culture incubator. After 60 min incubation, 400 ng/mL IFN-α (Biolegend 592702, final concentration 20 ng/ml) was added. The obtained was mixed well and placed in the cell culture incubator to continue incubation for 15 min.
After cytokine stimulation, 5 ul of PE-CD3 (BD 555333) antibody was added to each well, mixed and incubation was continued at 4° C. in the refrigerator. At the end, whole blood was transferred to a 96-well deep-well plate using a volley gun, pre-warmed 1× Fix/Lysis solution was added, and cells were lysed and fixed for 12 minutes at 37° C. in an incubator. After being washed, 400 μL of Perm III solution was added, vortexed and incubated on ice for 30 minutes. Cells were then stained by 100 μL of APC-pSTAT5 (1:100) antibody for 50 min at room temperature. This was followed by flow-through instrumentation. The expression of pSTAT5 was quantified by median fluorescence intensity after gating the CD3-positive signaling cluster.

Data set [4] has as its target T1, JAK3 (Homo sapiens, UniProt P52333, cells depend on it, form not given).
T1 construct: fused on or other part: N-terminal part of TEL (ETV6) as oligomerising partner; P41212 (Transcription factor ETV6)
In words: JAK family kinase selectivity assay, Ba/F3-TEL-JAK3 cell proliferation. The class given is cell-based. To be noted: read-out: Ba/F3 Cell IC50 JAK3; Ba/F3-TEL-JAK3, 72 h. The source says: (§1) There are four kinases in the JAK family, respectively TYK2, JAK1, JAK2 and JAK3. JAK family kinase genes were introduced into the wild-type murine B lymphocytes (BaF3), and four BaF3 engineered cell lines were constructed respectively (Ba/F3-FL-TYK2-E957D, Ba/F3-TEL-JAK1, Ba/F3-TEL-JAK2, Ba/F3-TEL-JAK3). The growth and proliferation of these engineered cell lines were not dependent on IL-3, but on exogenously transferred JAK family kinases.
(§2) In this experiment, the inhibitory effects of the compounds on the proliferation of four cell types, Ba/F3-FL-TYK2-E957D, Ba/F3-TEL-JAK1, Ba/F3-TEL-JAK2, and Ba/F3-TEL-JAK3 were tested, and apoptosis was detected, and the IC50 values were calculated. The inhibitory activities of the compounds against TYK2, JAK1, JAK2, and JAK3 kinases were evaluated based on the IC50 value, thus assessing the JAK family kinase selectivity of the compounds.
(§3) The tested compounds, powder and stored at room temperature, were prepared into 10 mM stock solution with DMSO and stored at −20° C. away from light for use.
(§4) Compounds were formulated into dilute solutions which was 1000 times of the final concentration. The compound was prepared into 20-times of final concentration by diluting the compound with culture medium. 2 ul of 1000-times compound was added per well to 98 ul of culture medium.
(§5) Cells (provided by Sundia Pharmaceutical Technology (Shanghai) Co., Ltd.) were resuspended and counted using an automated cell counter. The cell suspension was diluted to the desired density based on BaF3 seeding density of 2000 cells per well. Each well was plated with 95 ul of cells and incubated at 37° C. for stable equilibrium. […]
(§6) The cell plate was equilibrated to room temperature. […] Detected with SpectraMax Paradigm.
(§7) • (1) IC50 was calculated using GraphPad Prism 5. • (2) % Inh=(Max signal-Compound signal)/(Max signal-Min signal)×100. • (3) Max signal was the positive control well with only the same volume of DMSO as the compound. • (4) Min signal was the negative control well with only the culture medium.

Data set [5] addresses T2, JAK2 (Homo sapiens, UniProt O60674, cells depend on it, form not given).
T2 construct: fused on or other part: N-terminal part of TEL (ETV6) as oligomerising partner; it is the second protein of the fusion and part of the key; P41212 (Transcription factor ETV6)
As to the kind of experiment: JAK family kinase selectivity assay, Ba/F3-TEL-JAK2 cell proliferation. The class given is cell-based. To be noted: read-out: Ba/F3 Cell IC50 JAK2; Ba/F3-TEL-JAK2, 72 h.
Description: as §1, §2, §3, §4, §5, §6, §7

The conditions of data set [6]: dogs, 2 mg/kg, literature values; cited from earlier work.
Data set [7] deals with T3, TYK2 (Homo sapiens, UniProt P29597, E957D).
T3 construct: host or cells: Ba/F3 (murine B lymphocytes)
In words: TYK2 kinase activity inhibition assay (Ba/F3-FL-TYK2-E957D cell proliferation, CellTiter-Glo). The class given is cell-based. To be noted: 72 h. Here is the method:
The TYK2 kinase gene was introduced into wild-type murine-derived B lymphocytes (BaF3) to construct the Ba/F3-FL-TYK2-E957D stable cell line.
In this experiment, the inhibitory effect of the compounds on the proliferation of Ba/F3-FL-TYK2-E957D cells were tested, apoptosis was detected, and the IC50 value was calculated. The inhibitory activity of the compounds against TYK2 kinase was evaluated based on the IC50 value.
as §3
Compounds were prepared into dilute solutions which was 1000 times of the final concentration. The compound was prepared into 20-times of the final concentration by diluting the compound with culture medium. 2 ul of 1000-times compound was added to per well to 98 ul of culture medium.
Cells (provided by Sundia Pharmaceutical Technology (Shanghai) Co., Ltd.) were resuspended and counted using an automated cell counter. The cell suspension was diluted to the desired density based on BaF3 seeding density of 2000 cells per well. Each well was plated with 95 ul of cells and incubated at 37° C. for stable equilibrium. 5 ul of 20-times compound was added to each well, with the wells to which the same volume of DMSO was added as a control.
The cell plate was equilibrated to room temperature. 40 ul CellTiter-Glo® Reagent was added to each well, shaken for 2 minutes and allowed to stand for 10 minutes. Detected with SpectraMax Paradigm.
• (1) IC50 was calculated using GraphPad Prism 5. • (2) % Inh=(Max signal−Compound signal)/(Max signal−Min signal)×100. • (3) Max signal was the positive control well with only the same volume of DMSO as the compound. • (4) Min signal was the negative control well with only the culture medium.

A word on the Cmax: it is the highest concentration seen after dosing. One may read the MRT as a mean duration of stay, worked out from the concentration-time curve. What is called half-life is the time in which the quantity being followed falls by half. A lower half-life goes with rapid decline. One may read the Solubility as the dissolved amount per volume that the medium holds. In general, IC50 refers to the concentration at which inhibition is half-maximal.

T3 sequence (P29597 whole entry E957D): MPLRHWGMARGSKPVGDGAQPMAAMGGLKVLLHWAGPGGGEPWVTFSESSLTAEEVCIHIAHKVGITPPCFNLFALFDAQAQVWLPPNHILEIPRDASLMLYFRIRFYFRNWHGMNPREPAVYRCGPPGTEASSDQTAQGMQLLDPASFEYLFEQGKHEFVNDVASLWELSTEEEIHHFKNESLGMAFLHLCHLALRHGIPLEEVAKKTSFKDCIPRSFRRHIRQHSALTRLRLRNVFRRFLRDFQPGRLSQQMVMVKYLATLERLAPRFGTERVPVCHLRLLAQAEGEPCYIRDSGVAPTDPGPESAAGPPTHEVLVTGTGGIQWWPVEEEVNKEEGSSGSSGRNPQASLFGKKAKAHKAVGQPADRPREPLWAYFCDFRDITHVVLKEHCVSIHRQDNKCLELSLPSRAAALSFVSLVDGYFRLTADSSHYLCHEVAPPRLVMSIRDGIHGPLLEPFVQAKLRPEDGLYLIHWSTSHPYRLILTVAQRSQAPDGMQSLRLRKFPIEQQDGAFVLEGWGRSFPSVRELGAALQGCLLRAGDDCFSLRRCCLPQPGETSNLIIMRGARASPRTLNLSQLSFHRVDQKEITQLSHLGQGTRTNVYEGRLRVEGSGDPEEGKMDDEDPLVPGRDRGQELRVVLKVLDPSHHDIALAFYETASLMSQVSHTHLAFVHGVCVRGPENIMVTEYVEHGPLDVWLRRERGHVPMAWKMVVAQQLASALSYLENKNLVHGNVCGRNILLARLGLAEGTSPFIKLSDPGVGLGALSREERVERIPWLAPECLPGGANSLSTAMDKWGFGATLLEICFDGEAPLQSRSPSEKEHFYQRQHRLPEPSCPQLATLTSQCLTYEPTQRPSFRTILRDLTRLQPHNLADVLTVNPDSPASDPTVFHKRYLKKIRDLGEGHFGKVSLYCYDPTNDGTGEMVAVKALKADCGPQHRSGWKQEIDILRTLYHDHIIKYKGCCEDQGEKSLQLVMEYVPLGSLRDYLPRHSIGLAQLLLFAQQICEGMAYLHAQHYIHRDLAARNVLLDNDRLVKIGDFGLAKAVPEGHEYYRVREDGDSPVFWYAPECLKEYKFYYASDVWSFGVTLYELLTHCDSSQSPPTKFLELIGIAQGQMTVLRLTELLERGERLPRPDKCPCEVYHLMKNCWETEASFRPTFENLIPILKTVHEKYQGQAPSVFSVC
T1 sequence (P52333 822-1111 limits assumed, change not shown): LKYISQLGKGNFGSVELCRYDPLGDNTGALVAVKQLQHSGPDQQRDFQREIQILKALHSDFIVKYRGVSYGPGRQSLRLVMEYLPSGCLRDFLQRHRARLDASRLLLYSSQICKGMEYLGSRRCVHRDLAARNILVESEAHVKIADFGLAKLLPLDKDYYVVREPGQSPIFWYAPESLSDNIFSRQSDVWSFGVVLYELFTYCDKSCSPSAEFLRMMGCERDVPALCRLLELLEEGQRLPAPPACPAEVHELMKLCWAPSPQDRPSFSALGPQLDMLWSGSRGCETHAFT
T2 sequence (O60674 849-1132 limits assumed, change not shown): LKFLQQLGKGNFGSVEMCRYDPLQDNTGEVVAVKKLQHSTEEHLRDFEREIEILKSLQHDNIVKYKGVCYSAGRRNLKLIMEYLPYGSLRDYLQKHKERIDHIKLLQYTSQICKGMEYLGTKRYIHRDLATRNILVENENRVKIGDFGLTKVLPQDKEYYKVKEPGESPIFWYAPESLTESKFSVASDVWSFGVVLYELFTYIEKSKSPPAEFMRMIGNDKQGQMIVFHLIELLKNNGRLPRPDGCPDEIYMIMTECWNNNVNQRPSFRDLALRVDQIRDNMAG

In data set [1], `[2H]C([2H])([2H])NC(=O)c1nnc(NC(=O)C2CC2)cc1Nc1cccc(-c2ncn(C)n2)c1OC` [BMS-986165, Deucravacitinib, reference compound] registered an AUC of 2804 ngh/mL and an F of 28.5%. In data set [1] (male, SD, rat, plasma), this compound had a maximum concentration (Cmax) of 229 ng/mL, a mean residence time MRT of 6.43 h and a half-life of 3.68 h. Moreover, in data set [2] (pH 7, water, read-out: Solubility), the Solubility was 8.2 µg/mL (≈ 19.3 µM). The half-maximal inhibitory concentration (IC50) in data set [3] turned out to be 23.2 nM. Besides, the GI50 in data set [4] is over 1000 nM. Further, the GI50 in data set [5] was over 1000 nM. In addition, in data set [6], the AUC is listed as 1312 ngh/mL, the Cmax is listed as 222 ng/mL, the F was 35.5% and the T1/2 was 6.21 h.

As for `CN=S(C)(=O)c1cc(C)cnc1Nc1cc(NC(=O)C2CC2)nnc1C(=O)NC` (centres unmarked) [Example 15, 6-(cyclopropylcarboxamido)-4-((3-(N,S-dimethylsulfoximino)-5-methylpyridin-2-yl)amino)-N-methylpyridazine-3-carboxamide], the IC50 in data set [3] stood at 18 nM.

As to `CN=S(C)(=O)c1cc(F)c(N)nc1Nc1cc(NC(=O)C2CC2)nnc1C(=O)NC` (centres unmarked) [Example 22, 4-((6-amino-3-(N,S-dimethylsulfoximino)-5-fluoropyridin-2-yl)amino)-6-(cyclopropylcarboxamido)-N-methylpyridazine-3-carboxamide], the concentration for half-maximal inhibition (IC50) in data set [3] is 13 nM.

In the case of `CN=S(C)(=O)c1cc(Cl)c(N)nc1Nc1cc(NC(=O)C2CC2)nnc1C(=O)NC` (centres unmarked) [Example 23], the concentration for half-maximal inhibition (IC50) in data set [3] stood at 8.1 nM; in data set [7], 2 nM.

For the compound `CN=S(C)(=O)c1cc(Br)c(N)nc1Nc1cc(NC(=O)C2CC2)nnc1C(=O)NC` (centres unmarked) [Example 24, 4-((6-amino-5-bromo-3-(N,S-dimethylsulfoximino)pyridin-2-yl)amino)-6-(cyclopropylcarboxamido)-N-methylpyridazine-3-carboxamide], the IC50 in data set [3] amounted to 7.5 nM; in data set [7] it was 1.3 nM.

Take `CN=S(C)(=O)c1cc(C)c(N)nc1Nc1cc(NC(=O)C2CC2)nnc1C(=O)NC` (centres unmarked) [Example 26, 4-((6-amino-3-(N,S-dimethylsulfoximino)-5-methylpyridin-2-yl)amino)-6-(cyclopropylcarboxamido)-N-methylpyridazine-3-carboxamide]: the IC50 in data set [3] amounted to 9.4 nM.

Turning to `CN=S(C)(=O)c1cc2c(Cl)c[nH]c2nc1Nc1cc(NC(=O)C2CC2)nnc1C(=O)NC` (centres unmarked) [Example 32, 4-((3-chloro-5-(N,S-dimethylsulfoximino)-1H-pyrrolo[2,3-b]pyridin-6-yl)amino)-6-(cyclopropylamido)-N-methylpyridazine-3-carboxamide], the half-inhibitory concentration (IC50) in data set [3] came out at 16.1 nM; in data set [7], 0.62 nM.

`[2H]C([2H])([2H])NC(=O)c1nnc(NC(=O)C2CC2)cc1Nc1nc(N)c(Cl)cc1[S@@](C)(=O)=NC` [Example 38] returned a Solubility in data set [2] of 47 µg/mL (≈ 103 µM).
